Series [1] concerns the target nAChRs on SH-SY5Y cells (Homo sapiens, UniProt P36544). As to the kind of experiment: [Ca2+]i measurements in SH-SY5Y cells (agonist effect). The conditions noted are these: presence of PNU. It is filed as cell-based. As to the method: (§1) SH-SY5Y cells were cultured as previously described (Attoff et al. [2016]). Briefly, they were cultured in MEM supplemented with 10% fetal bovine serum (Gibco, 31330095), 1% non-essential amino acid solution (Gibco, 11140035), 2 mM L-glutamine (Gibco, 25030024), 100 μg/ml streptomycin, and 100 U/ml penicillin (Gibco, 15140122). For maintenance culture, SH-SY5Y cells were seeded at 27,000 cells/cm^2 in 75 cm^2 cell culture flasks (Corning). The cells were passaged once a week using TrypLE Express Enzyme (Gibco). SH-SY5Y cells were differentiated into a neuronal-like phenotype by exchanging the maintenance medium with differentiation medium consisting of DMEM/F12 (Gibco, 31330095) supplemented with 1 mM L-glutamine (Gibco, 25030024), 100 μg streptomycin/mL, 100 U penicillin/mL, 1 × N2-supplement (Gibco, 17502048) and 1 µM all-trans retinoic acid (RA, Sigma, R2625) 24 h after seeding. The cells were incubated in 100% humidity at 37 °C in air with 5% CO2.
(§2) To measure acute changes in the average [Ca^2+]i of a population, SH-SY5Y cells were examined in the 96-well plate fluorescence reader FlexStation II (Molecular Devices) using the fluorophore Fura-2AM. SH-SY5Y (35,000 cells/well; 109,375 cells/cm^2) were seeded in maintenance culture medium in black 96-well plates with clear bottom (Corning, #3603). 24 h after seeding, maintenance medium was replaced with differentiation medium. After 72 h of differentiation, Fura-2AM dissolved in DMSO and diluted in KRH buffer (125 mM NaCl, 5 mM KCl, 1.2 mM MgSO4, 1.2 mM KH2PO4, 2.0 mM CaCl2, 6.0 mM D-glucose, and 25 mM HEPES (free acid), pH adjusted to 7.4 by 1.0 M NaOH) were added to the medium to a final concentration of 4 µM (Gustafsson et al. [2010]). The plates were incubated for 30 min at 37 °C before cells were washed once with 200 µl KRH buffer. 90 µl of KRH buffer without or with 10 µM PNU-120596 (PNU) and/or 125 µM mecamylamine (Mec) and/or test chemicals in different concentrations for antagonist experiments were added to the Fura-2AM-loaded cells. The plate was again incubated for 20 min to allow full hydrolysis of the AM group before the experiment. The fluorescence was assessed at 37 °C in the fluorescence plate reader (FlexStation II; Molecular Devices) at two different excitation wavelengths, 340 nm for Ca^2+-bound Fura-2 and 380 nm for free Fura-2, and at 510 nm emission, every 3.1 s using bottom read settings. After 26–29 s of initial baseline recording of the fluorescence intensity, 10 µl of the compound dilution (10 times higher than the final concentration to the cells) was transferred automatically by the FlexStation II (“Flex mode”) to the cell plate wells (five wells per concentration) and the fluorescence intensity was monitored for another 150 s. The ratio of fluorescence intensity at 340/380 nm was determined and the mean values from the baseline recording before the addition of test compounds was set to zero. The acute change in the Ca^2+ influx after the addition of the compounds was quantified as the area under the curve (AUC) using the SoftMax Pro 4.8 software (Molecular Devices). All test compounds were dissolved in DMSO. Compounds were diluted in KRH buffer in 1:3 series, with 100 µM as the highest concentration. As a negative control, 0.1% DMSO in KRH buffer was used.

Series [2] has as its system nAChRs on SH-SY5Y cells. The series is described as above. Type of series: cell-based, human. The method, then:
as §1, §2

The test system of series [3] is LUHMES neurons. As to the kind of experiment: Single-cell Ca2+-imaging of LUHMES neurons. Type of series: cell-based, human. Conditions: single-cell time-lapse fluorescence microscopy. As to the method:
For Ca^2+-imaging experiments with a higher resolution on the single-cell level, the Cell Observer (Carl Zeiss Microscopy) was used. The Ca^2+-sensitive dye, the cell handling before the experiment, and the buffer were the same as described above for the experiments with the high-throughput FDSS/µCELL system. The recordings were performed with 2 × 2 binning and a 42 ms exposure time. The compounds were applied after a baseline recording of at least 10 s.
The single-cell Ca^2+-imaging recordings were exported and analyzed in Fiji ImageJ (version 1.52i) to get the average fluorescence signal of each cell. These signals were further analyzed in R, where a threshold detection was performed to detect responding cells. For this, the offset was corrected by subtracting the mean of 20–65% of the fluorescence signal of the pre-application period from the recording, to be robust against spontaneous activity. The threshold was defined as mean + 3 * SD of the negative control recordings, during the detection phase of 6.5 s during the application.

The conditions of series [4]: monoprotic base; average of values; ref CHEMBL and ACD; cited from earlier work.

Where “and” joins values, the source holds several entries; their conditions need not be identical. Equal values may be shown once.

nAChRs on SH-SY5Y cells (Homo sapiens, UniProt P36544), sequence (P36544 23-502): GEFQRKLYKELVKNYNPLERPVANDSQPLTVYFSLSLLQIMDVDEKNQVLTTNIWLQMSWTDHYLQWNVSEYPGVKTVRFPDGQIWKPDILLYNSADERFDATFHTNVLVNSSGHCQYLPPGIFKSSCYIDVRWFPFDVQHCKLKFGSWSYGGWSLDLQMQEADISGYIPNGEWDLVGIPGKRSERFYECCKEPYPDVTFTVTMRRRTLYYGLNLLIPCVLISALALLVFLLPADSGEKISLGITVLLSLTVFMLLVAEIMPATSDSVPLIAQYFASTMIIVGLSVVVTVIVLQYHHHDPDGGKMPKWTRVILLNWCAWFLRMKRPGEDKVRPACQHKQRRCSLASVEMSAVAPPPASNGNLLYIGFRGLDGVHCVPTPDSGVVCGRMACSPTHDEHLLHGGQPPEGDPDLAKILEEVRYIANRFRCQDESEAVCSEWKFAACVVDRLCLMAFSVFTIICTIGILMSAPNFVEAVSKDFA

Regarding `NC1=NCCN1Cc1ccc(Cl)nc1` [DN-IMI, desnitro-imidacloprid], the “relative pEC50 (AUC of fluorescence)” value came to 6.5 ± 0.07 in series [1] (normalized to 10 µM nicotine, fit for < 10 µM) and 6.8 ± 0.36 in series [2] (absence of PNU, normalized to 10 µM nicotine, fit for < 10 µM). The EC50 in series [1] (read-out: half-maximal response concentration) is 300 nM and ~300 nM. For the same molecule, in series [2] (absence of PNU), the “response without PNU as % of the maximal response obtained in the presence of PNU” value was “about 44%”. The estimated maximum in series [2] (absence of PNU, normalized to 10 µM nicotine) is listed as ~ 0.44; in series [2] (presence of PNU, normalized to 10 µM nicotine), ~ 0.93. In addition, in series [2] (presence of PNU, declining responses at higher concentrations), the “concentration of peak response” value is ~ 3 µM. For the same molecule, in series [3], the “percentage of responsive cells” value is ~ 80%. The pKa (commonly the negative logarithm of the acid dissociation constant) in series [4] is listed as 9.6.
